Counter-ions that a name gives are not always drawn. Like-named read-outs stand apart in the source and are kept apart here.
Key:
P. falciparum strain K1 = assay: In vitro activity against P. falciparum, serial drug dilution assay; settings: for IC50: Plasmodium falciparum; for selectivity ratio: rat
Method: (§1) Drug stock solutions (10mg/ml) were in DMSO (100%). […] Selectivity index (SI) was calculated as IC50 L6 cells/IC50 parasite.

[1] = Cytotoxicity on macrophages infected with L. donovani; type: cell-based, mouse; settings: mouse
Method: After 24 h 1.2 x 10^5 amastigote L. donovani in 100 μl were added. The amastigotes were taken from an axenic culture grown at pH 5.4. Four hours later, the medium containing free amastigote forms was removed and replaced by fresh medium. The next day the medium was replaced by medium with or without a serial drug dilution of seven 3-fold dilution steps covering a range from 30 to 0.04 μg/ml. Parasite growth in the presence of the drug was compared to control wells. After 96 h of incubation, the medium was removed and the slides fixed with methanol for 10 min followed by staining with a 10% Giemsa solution. Infected and non-infected macrophages were counted for the control cultures and those exposed to the serial drug dilutions. The infection rates were determined. The results were expressed as a percentage reduction in parasite burden compared to control wells, and the IC50 was calculated by linear regression analysis.

[2] = test system: T. b. rhodesiense strain STIB 900, trypomastigotes; assay: In vitro activity against T. b. rhodesiense, serial drug dilution assay; settings: for IC50: Trypanosoma brucei; for Activity against T. b. rhodesiense (in words): in vitro
Method: as §1

[3] = test system: intracellular amastigotes of L. donovani strain MHOM-ET-67/L82; assay: Activity against Leishmania donovani intracellular amastigotes in mouse peritoneal macrophages; settings: Leishmania donovani, Peritoneal macrophage, in Mus musculus
In short: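 Axenic amastigotes grown at pH 5.4 infected mouse peritoneal macrophages for 4 h before free parasites were washed off. Next day, seven 3-fold drug dilutions (30–0.04 μg/ml) were added for 96 h. Giemsa-stained infected macrophages were counted, burden reduction was taken vs untreated controls, and IC50 came from linear regression.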

in vitro = settings: rat
Method: as §1

[4] = test system: T. cruzi, strain Tulahuen C4, intracellular amastigotes; assay: microbe, parasite or virus in culture; settings: for IC50: Trypanosoma cruzi, TULAHUEN
Method: as §1

[5] = test system: axenic amastigotes of L. donovani, strain MHOM-ET-67/L82; assay: In vitro activity against L. donovani axenic amastigotes, serial drug dilution assay; type: cell-based, Leishmania donovani; settings: Leishmania donovani
Method: as §1

[6] = macrophages infected with L. donovani, read-out: IC50 Cytotox. mac.inf.
[7] = 96 h, read-out: IC50 L. don. intracell
[8] = axenic amastigotes, strain MHOM-ET-67/L82, means of two independent assays, read-out: IC50 L. don. axen.
[9] = mouse peritoneal macrophages infected with L. donovani, macrophages infected with L. donovani, read-out: IC50 Cytotox. mac.inf.
[10] = L6 cells, IC50 Cytotox. L6, L6 cells, means of two independent assays
[11] = rat, L6 cells versus T. b. rhodesiense STIB 900 trypomastigotes
[12] = infected macrophages, read-out: Cytotox. mac.inf. IC50
[13] = read-out: L. don. intracell IC50
[14] = L. donovani axenic amastigotes, read-out: L. don. axen. IC50
[15] = Selectivity index: IC50 Cytotoxicity L6/ IC50 P. falciparum

SMILES	IC50 (P. falciparum strain K1; K1, read-out: IC50 P. falc. K1) [µM]	IC50 at 96 h [1, 6] [µM]	IC50 ([2]; read-out: IC50 T. b. rhod.) [µM]	IC50 [3, 7] [µM]	IC50 ([4]; read-out: IC50 T. cruzi) [µM]	IC50 [5, 8] [µM]	IC50 (in vitro; IC50 Cytotox. L6) [µM]	IC50 at 96 h [1, 9] [µM]	IC50 (in vitro; [10]) [µM]	further results
CNCCC=C1c2ccccc2CCc2ccccc21 [Nortryptyline]	0.58	38	1.17	> 11.4	22.9	> 342	–	–	–	selectivity ratio (P. falciparum strain K1): 48; Selectivity index: IC50 Cytotoxicity L6/ IC50 T. b. rhodesiense ([2]; rat): 24; selectivity ratio ([2]; rat, Selectivity index: IC50 Cytotoxicity L6/ IC50 T. b. rhodesiense): > 20; IC50 (in vitro): 27.9 µM
COc1ccc2[nH]c([S+]([O-])Cc3ncc(C)c(OC)c3C)nc2c1 (stereo not shown) [Omeprazole]	13.2	> 86.9	51.8	> 86.9	68.3	90.9	126	–	–	–
Fc1ccc([C@@H]2CCNC[C@H]2COc2ccc3c(c2)OCO3)cc1 [Paroxetine]	9.23	–	1.13	> 9.11	14.4	> 273	13.8	–	–	MCC at 96 h [1, 6]: 30.4 µM; selectivity ratio ([2]; rat): 12
Nc1nc2c(ncn2CCC(CO)CO)c(=O)[nH]1 [Penciclovir]	169	> 118	> 395	> 118	254	> 395	220	–	–	–
Cc1nc2ccccn2c(=O)c1CCN1CCC(C(=O)c2ccc(F)cc2)CC1 [Pirenperone]	4.35	–	30	> 76.2	128	162	–	> 76.2	232	–
CN1CCC(=C2c3ccccc3CCc3sccc32)CC1 [Pizotifen]	1.86	–	3.99	> 33.9	30.6	215	–	> 102	45	selectivity ratio ([2]; rat): 11
CN(C)CCCN1c2ccccc2Sc2ccccc21 [Promazine]	0.49	> 35.2	2.16	> 35.2	49.1	> 316	–	–	30.1	selectivity ratio (P. falciparum strain K1; L6 cells versus P. falciparum K1, Selectivity index: IC50 Cytotoxicity L6/ IC50 P. falciparum): 61; selectivity ratio [2, 11]: 14
NC(=O)c1cnccn1 [Pyrazinamide]	179	> 244	> 812	> 244	565	> 812	458	–	–	–
CCc1nc(N)nc(N)c1-c1ccc(Cl)cc1 [Pyrimethamine]	9.85	> 12.1	6.75	> 12.1	5.71	278	2.51	–	–	–
CO[C@H]1/C=C/O[C@@]2(C)Oc3c(C)c(O)c4c(c3C2=O)C2=NC3(CCN(CC(C)C)CC3)NC2=C(NC(=O)/C(C)=C\C=C\[C@H](C)[C@H](O)[C@@H](C)[C@@H](O)[C@@H](C)[C@H](OC(C)=O)[C@@H]1C)C4=O [Rifabutin]	–	–	–	–	–	–	–	–	–	IC50 (P. falciparum strain K1; K1, read-out: P. falc. IC50): 1.59 µM; IC50 at 96 h [1, 12]: > 35.4 µM; IC50 ([2]; read-out: T. b. rhod. IC50): 12.6 µM; Activity against T. b. rhodesiense (in words) [2]: devoid of antitrypanosomal activity; IC50 [3, 13]: > 35.4 µM; IC50 (in vitro; Cytotox. L6 IC50): 60.9 µM; IC50 ([4]; read-out: T. cruzi IC50): 27.5 µM; IC50 [5, 14]: 56.4 µM
CO[C@H]1/C=C/O[C@@]2(C)Oc3c(C)c(O)c4c(O)c(c5c(nc6cc(C)ccn65)c4c3C2=O)NC(=O)/C(C)=C\C=C\[C@H](C)[C@H](O)[C@@H](C)[C@@H](O)[C@@H](C)[C@H](OC(C)=O)[C@@H]1C [Rifaximin]	0.92	–	–	–	–	–	88	–	–	selectivity ratio (P. falciparum strain K1; [15]): 96; IC50 at 96 h [1, 12]: > 38.2 µM; IC50 ([2]; read-out: T. b. rhod. IC50): 17.1 µM; Activity against T. b. rhodesiense (in words) [2]: devoid of antitrypanosomal activity; IC50 [3, 13]: > 38.2 µM; IC50 ([4]; read-out: T. cruzi IC50): 40.2 µM; IC50 [5, 14]: 15 µM
CC(N)C12CC3CC(CC(C3)C1)C2 (stereo not shown) [Rimantadine]	0.97	–	13.8	> 167	321	427	–	> 167	311	Activity against P. falciparum (in words) (P. falciparum strain K1; in vitro): selective activities; selectivity ratio (P. falciparum strain K1; [15]): 321; selectivity ratio [2, 11]: 23
CC(C)(C)NC(=O)[C@@H]1C[C@@H]2CCCC[C@@H]2CN1C[C@@H](O)[C@H](Cc1ccccc1)NC(=O)[C@H](CC(N)=O)NC(=O)c1ccc2ccccc2n1 [Saquinavir]	11.9	> 44.7	12.3	> 44.7	17.1	77.4	18.2	–	–	–
Cc1cn([C@H]2C=C[C@@H](CO)O2)c(=O)[nH]c1=O [Stavudine]	186	–	120	> 134	341	> 446	–	> 134	266	–
CN1CC(=O)N2[C@H](c3ccc4c(c3)OCO4)c3[nH]c4ccccc4c3C[C@@H]2C1=O [Tadalafil]	> 12.8	> 77	97.6	> 77	8.6	40.1	221	–	–	Selectivity index: IC50 Cytotoxicity L6/ IC50 T. cruzi ([4]; rat): 26; selectivity ratio ([4]; rat, Selectivity index: IC50 Cytotoxicity L6/ IC50 T. cruzi): > 26
COc1cc(C)c2c(Oc3cccc(C(F)(F)F)c3)c(OC)cc(NC(C)CCCN)c2n1 (stereo not shown) [Tafenoquine]	0.27	–	1.42	2.16	6.11	17.9	–	6.47	5.52	selectivity ratio (P. falciparum strain K1; [15]): 20
CN(C/C=C/C#CC(C)(C)C)Cc1cccc2ccccc12 [Terbinafine (Hydrochloride), Terbinafine]	7.72	–	95.2	69.5	40.9	23	–	> 91.5	47	–
Nc1nc(N)c2nc(-c3ccccc3)c(N)nc2n1 [Triamterene]	17.2	> 11.8	21.7	> 11.8	22.7	307	8.53	–	–	–
CN1CCN(CCCN2c3ccccc3Sc3ccc(C(F)(F)F)cc32)CC1 [Trifluoperazine]	1.48	24.5	1.23	> 7.36	10.1	52.9	–	–	11	–
CN(C)CCCN1c2ccccc2Sc2ccc(C(F)(F)F)cc21 [Triflupromazine]	–	–	1.42	–	–	–	–	–	18.5	IC50 (P. falciparum strain K1; K1, read-out: P. falc. IC50): 2.72 µM; MCC at 96 h [1, 12]: 28.4 µM; selectivity ratio [2, 11]: 13; IC50 [3, 13]: > 8.51 µM; IC50 ([4]; read-out: T. cruzi IC50): 15 µM; IC50 [5, 14]: 79.8 µM

From PMC4535766, “Antiprotozoal Activity Profiling of Approved Drugs: A Starting Point toward Drug Repositioning” (PLoS ONE, 2015)
